Test results as given in patent US20220346381A1, “COMPOSITION FOR PREVENTING THE FORMATION OF SEEDS IN FRUIT” (ASOCIACION CLUB DE VARIEDADES VEGETALES PROTEGIDAS, priority 2019, published 2022).
Several values for one entry are separate records, joined by “and”; a condition that tells them apart may be missing. Equal entries are not always repeated. Entries after “also recorded” stand apart in the source; their conditions may differ.

What was measured:
[1] = system: Nadorcott variety (mandarin); experiment: Treatment of entire trees, number of seeds in the fruit; format: in vivo
[2] = system: adult trees of the Nadorcott mandarin variety; experiment: Phyto-toxicity on sprayed adult trees (chlorosis, necrosis, defoliation); format: in vivo; conditions: recommended concentrations (below 4%); listed as active product
Experimental: Phyto-toxicity tests were performed on adult trees of the Nadorcott mandarin variety. The trees were sprayed with different concentrations of the active product (S8). The level of affection on chlorosis, necrosis and defoliation was assessed, on a scale of 1 to 6, with 1 being very low and 6 being very high.

[3] = system: flowers of the Nadorcott mandarin; experiment: Action over time, pre-pollination treatment of flowers, seeds in fruit; format: in vivo; conditions: flowers treated, then pollinated D0 to D9; positive control 4.67 seeds
Experimental: (§1) In order to study the action over time of the product, two experiments were carried out on the flowers of the Nadorcott mandarin, one pre-pollination and the other post-pollination. In the pre-pollination experiment 300 flowers were treated with the product of the invention (S8) and subsequently pollinated in batches. One batch was pollinated on the same day (D0) and another batch the following day (D1), and so on successively until D9.

grapes Vitis vinifera L. = experiment: Treatment of individual pollinated flowers, pollen tubes in the stigma by fluorescence microscopy; format: in vivo
Experimental: (§2) Flower: treatment on individual flowers and microscopic observation of fluorescence. In this case the presence or absence of pollen tubes (PT) in the stigma was assessed as was their percentage reduction compared to positive controls. […] C+=Positive control=flower pollinated but NOT treated with the active product; PT=Pollen tubes (fluorescent fibres); AP=Active product.

Grapefruit = experiment: Treatment of individual pollinated flowers, pollen tubes in the stigma; format: in vivo, grapefruit tree
Experimental: as §2

Nadorcott (mandarin) [4] = experiment: Field treatment by tractor on entire rows of adult trees, seeds; format: in vivo; conditions: scale Field
Description: Field: treatments by tractor on entire rows of adult trees.

Sweet orange = experiment: Treatment of individual pollinated flowers, pollen tubes in the stigma; format: in vivo, orange tree
Experimental: as §2

[5] = system: flowers of the Nadorcott mandarin; experiment: Action over time, post-pollination treatment of flowers, seeds in fruit; format: in vivo
Experimental: as §1, with “D9. In the post-pollination experiment 360 flowers were first pollinated. In this case, after first having been pollinated a batch was treated with the product on the same day (D0), another batch the following day (D1) and so on successively until day 9 (D9).” for “D9.”

[6] = system: common bumblebee (Bombus sp.); experiment: Effects on pollinators, laboratory mortality test; format: in vivo; conditions: for toxicity classification for bumblebees / pollinators: international scale: non-toxic = acute LD50 >100 μg/bee
Mexican lime = experiment: Treatment of individual pollinated flowers, pollen tubes in the stigma; format: in vivo
Experimental: as §2

[7] = system: Nova. C. clementine x [C.paradisi x C.tangerina]; experiment: as above; format: in vivo
Experimental: as §2

[8] = system: clementine fina Citrus clementine hort. Ex Tanaka; experiment: as above; format: in vivo
Experimental: as §2

[9] = system: clemenules Citrus clementine hort. Ex Tanaka; experiment: as above; format: in vivo
Experimental: as §2

[10] = system: Murcott Citrus reticulata White; experiment: as above; format: in vivo
Experimental: as §2

Nadorcott (mandarin) [11] = experiment: as above; format: in vivo
Experimental: as §2

[12] = system: lemons Citrus limon L. Burm. f.; experiment: as above; format: in vivo
Experimental: as §2

[13] = system: watermelons Citrullus lanatus (Thunb.) Matsum. & Nakai; experiment: Treatment of individual flowers, pollen tubes in the stigma; format: in vivo
Experimental: as §2, with “controls. Fruit: treatment of individual flowers and subsequent observation of the fruit formed from the treated flower.” for “controls.”

[14] = system: cucumber fruit Cucumis sativus L.; experiment: Treatment of individual flowers, observation of the fruit formed (seeds); format: in vivo; conditions: scale Fruit
Description: (§3) Fruit: treatment of individual flowers and subsequent observation of the fruit formed from the treated flower. […] C+=Positive control=flower pollinated but NOT treated with the active product; PT=Pollen tubes (fluorescent fibres); AP=Active product.

[15] = system: stigma papilla cells of mandarin flower; experiment: Microscopy of stigma treated with sulphur only or gibberellic acid only; format: in vivo; conditions: for state of stigma papilla cells (semi-thin cut): mandarin stigma treated with a single component only; for pollen tubes in the stigma of pollinated mandarin flower (fluorescence microscope): treated with a single component only
Description: The active ingredient sulphur, preferably in the form of an octatomic molecule (S8), is responsible for preventing the formation of seeds through the alteration of papilla cells of the stigma, whilst the GA is responsible for re-establishing the stimuli needed for the formation of the fruit, thus preventing a possible reduction in yield. The need for GA will depend on each crop and its parthenocarpic capacity. […] This mechanism is substantially due to the effect of sulphur. […] The effect of the active ingredient (sulphur) and gibberellic acid (GA) on papilla cells can be compared separately in FIGS. 6 and 7 through semi-thin microscope cuts.

pollen grains = experiment: Germination of pollen grains on Petri dishes; format: cell-based; conditions: assessed after 72 hours
Experimental: The action of the product on the germination of pollen grains was studied. To that end, pollen grains were sown on Petri dishes in laboratory conditions to which growing medium increasing concentrations of the active product (S8) were added. After 72 hours they were assessed and the number of germinated pollen grains were counted on each Petri dish.
A non-toxic, neutral product (sample), KNO3 was used for comparing the results with those obtained from the active product (AP).

[16] = system: aubergines Solanum melongena L.; experiment: Treatment of individual flowers, fruit seeds and pollen tubes in the stigma; format: in vivo
Description: as §3

mandarin = conditions: literature [1,2]; cited from earlier work
[17] = purified powder; cited from earlier work

OC[C@H]1O[C@@](CO)(O[C@H]2O[C@H](CO)[C@@H](O)[C@H](O)[C@H]2O)[C@@H](O)[C@@H]1O [Treatment T6, sucrose, reference compound]
mean number of seeds in the fruit ([1]; entire Nadorcott trees, about 120 fruits per treatment, positive control C+ 3.3): 3.183

S1SSSSSSS1 [(S8), sulphur (S) as an octatomic molecule (S8)]
phyto-toxicity (chlorosis, necrosis, defoliation) [2]: does not produce necrosis, chlorosis or defoliation; also recorded: not phyto-toxic | seeds in fruit after pre-pollination treatment [3]: did not present a single seed | red. of PT (grapes Vitis vinifera L.; Vid, scale Flower, vs positive control): =100% red. of PT (FIG. 9A and 9B) | pollen tubes in treated stigma (fluorescence image) (grapes Vitis vinifera L.; grape, pollinated flower): without PT | red. of PT (Grapefruit; Grapefruit, scale Flower): =100% red. of PT (FIG. 19) | pollen tubes in treated pollinated flowers (fluorescence image) (Grapefruit; grapefruit tree): No visible PT | red. of seeds (Nadorcott (mandarin) [4]): =81% red. of seeds | red. of PT (Sweet orange; Sweet orange, scale Flower): =100% red. of PT (FIG. 18) | pollen tubes in treated pollinated flowers (fluorescence image) (Sweet orange; orange tree): No visible PT | red. of seeds ([1]; Nadorcott, scale Tree): ~85% | reduction of the average number of seeds compared to the positive control (in words) ([1]; entire Nadorcott trees, six experimental products compared): only one to significantly reduce the average number of seeds | mean number of seeds in the fruit ([1]; entire Nadorcott trees, about 120 fruits per treatment, positive control C+ 3.3, listed as T1): 0.4 and 0.4083 | seeds prevented, post-pollination treatment ([5]; treated D0 to D3 after pollination, positive control 4.7 seeds): 100% | seeds prevented, post-pollination treatment ([5]; treated D4-D9 after pollination): approximately 50% | mortality rate ([6]; bumblebees, at 48 h): 50% | toxicity classification for bumblebees / pollinators ([6]; listed as active ingredient): non-toxic | toxicity classification for bumblebees / pollinators ([6]; listed as active product): non-toxic for pollinator insects | pollen tubes in treated pollinated flowers (fluorescence image) (Mexican lime): No visible PT | red. of PT (Mexican lime; scale Flower): =100% red. of PT (FIG. 20) | pollen tubes in treated stigma (fluorescence image) ([7]; Nova): without PT | red. of PT ([7]; Nova (tangelo), scale Flower): =100% red. of PT (FIG. 16A and 16B) | red. of PT ([8]; Fina, scale Flower): =100% red. of PT (FIG. 14A and 14B) | pollen tubes in treated stigma (fluorescence image) ([8]; clementine fina): without PT | red. of PT ([9]; Clemenules, scale Flower): =100% red. of PT (FIG. 13A and 13B) | pollen tubes in treated stigma (fluorescence image) ([9]; clemenules): without PT | pollen tubes in treated stigma (fluorescence image) [10]: without PT | red. of PT ([10]; scale Flower): =100% red. of PT (FIG. 15A and 15B) | red. of PT (Nadorcott (mandarin) [11]; Nadorcott, scale Flower): =100% red. of PT | efficiencies when applied directly on the flower (Nadorcott (mandarin) [11]; direct application on the flower): 95-100% | red. of PT ([12]; Lemon, scale Flower): =100% red. of PT (FIG. 17A and 17B) | pollen tubes in treated stigma (fluorescence image) ([12]; lemon): without PT | red. of PT ([13]; Watermelon, scale printed Fruit): =100% red. of PT (FIG. 12A and 12B) | pollen tubes in treated stigma (fluorescence image) ([13]; watermelon): without PT | red. seeds [14]: =100% red. seeds (FIG. 10A and 10B) | state of stigma papilla cell (TEM) ([15]; TEM, crop not stated): lost turgidity and part of its components and appears collapsed | state of stigma papilla cells (semi-thin cut) [15]: damaged | state of stigma papilla cells (semi-thin cut) ([15]; listed as active ingredient (sulphur)): damaged stigma, without turgidity | pollen tubes in the stigma of pollinated mandarin flower (fluorescence microscope) ([15]; listed as active ingredient (S8)): without pollen tubes; also recorded: no pollen tubes in the stigmatic area | concentration at which inhibition of pollen grain germination is total (pollen grains): 2000 mg/L | red. seeds ([16]; Aubergine, scale Fruit): =100% red. seeds (FIG. 11A and 11B) | pollen tubes in treated stigma (fluorescence image) ([16]; aubergine): without PT

O=[N+]([O-])[O-].[K+] [Treatment T3, potassium nitrate, reference compound]
mean number of seeds in the fruit ([1]; in vivo): 3.333

C=C1C[C@]23C[C@@]1(O)CC[C@H]2[C@@]12C=C[C@H](O)[C@@](C)(C(=O)O1)[C@H]2[C@@H]3C(=O)O [GA, gibberellic acid, reference compound]
state of stigma papilla cells (semi-thin cut) [15]: intact, functional and turgid | state of stigma papilla cells (semi-thin cut) ([15]; listed as gibberellic acid): good, functional and turgid | pollen tubes in the stigma of pollinated mandarin flower (fluorescence microscope) [15]: developed pollen tubes can be clearly observed | pollen tubes in the stigma of pollinated mandarin flower (fluorescence microscope) ([15]; listed as gibberellic acid): presence of pollen tubes inside the stigma can be clearly seen | effectiveness for reducing the number of seeds in real field conditions (in words) (mandarin): not effective for reducing the number of seeds | solubility in ethanol [17]: soluble in ethanol | solubility in water [17]: somewhat soluble in water
